In ChEMBL document CHEMBL1128386, “Structure-activity relationships of milrinone analogues determined in vitro in a rabbit heart membrane Ca(2+)-ATPase model” (J Med Chem, 1995):

Species: Oryctolagus cuniculus
Assay: Activity against [Ca2+]-ATPase assay in rabbit myocardial membrane.
Type: cell membranes
Conditions: Myocardium

SMILES | Activity
Cc1nc(O)c(N)cc1-c1ccncc1 | 6 µM
Cc1cnccc1-c1cnc(O)c(N)c1 | 0.03 µM
Cc1cnccc1-c1cc(C#N)c(O)nc1C | 3.3 µM
Nc1cc(-c2ccncc2)c[nH]c1=O | 1.4 µM
Cc1nc(O)c(Br)cc1-c1ccncc1 | 6.6 µM
Cc1[nH]c(=O)c(C#N)cc1-c1ccncc1 | 10.7 µM
Cc1cnccc1-c1cnc(O)c(C#N)c1 | 0.5 µM
